{
  "source": "ChEMBL document CHEMBL1201862",
  "about": "“PubChem BioAssay data set” (2004)",
  "key": {"[1]": {"target": "T1, Endoplasmic reticulum aminopeptidase 1 (Homo sapiens, UniProt Q9NZ08)", "T1 sequence (Q9NZ08 whole entry)": "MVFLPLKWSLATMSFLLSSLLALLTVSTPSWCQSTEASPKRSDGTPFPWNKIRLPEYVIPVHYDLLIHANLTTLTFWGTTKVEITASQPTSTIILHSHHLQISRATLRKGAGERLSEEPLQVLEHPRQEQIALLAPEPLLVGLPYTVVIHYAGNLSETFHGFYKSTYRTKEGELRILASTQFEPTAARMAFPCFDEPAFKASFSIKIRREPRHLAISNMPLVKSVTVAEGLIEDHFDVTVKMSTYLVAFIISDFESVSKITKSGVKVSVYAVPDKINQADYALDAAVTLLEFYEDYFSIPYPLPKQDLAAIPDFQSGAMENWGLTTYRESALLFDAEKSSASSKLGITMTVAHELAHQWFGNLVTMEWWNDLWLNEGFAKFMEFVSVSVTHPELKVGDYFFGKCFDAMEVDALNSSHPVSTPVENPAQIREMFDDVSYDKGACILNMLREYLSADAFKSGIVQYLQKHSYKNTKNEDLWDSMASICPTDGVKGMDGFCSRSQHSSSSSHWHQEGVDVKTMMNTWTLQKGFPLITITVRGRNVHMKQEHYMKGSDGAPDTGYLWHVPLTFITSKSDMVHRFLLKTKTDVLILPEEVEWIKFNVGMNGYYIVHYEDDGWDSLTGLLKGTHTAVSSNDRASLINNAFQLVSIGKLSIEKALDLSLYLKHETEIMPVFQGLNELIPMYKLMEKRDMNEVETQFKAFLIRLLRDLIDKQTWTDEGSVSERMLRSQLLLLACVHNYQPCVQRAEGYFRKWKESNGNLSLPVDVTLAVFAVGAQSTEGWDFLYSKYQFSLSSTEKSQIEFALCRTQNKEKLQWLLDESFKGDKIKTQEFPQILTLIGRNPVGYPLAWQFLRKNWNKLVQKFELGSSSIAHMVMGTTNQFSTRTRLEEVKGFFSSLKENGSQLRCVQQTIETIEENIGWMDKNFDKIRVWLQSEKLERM", "experiment": "ERAP1 aminopeptidase inhibitors, dose response, biochemical, cherry-pick, set 2, plate reader (AID 743314)"}, "[2]": {"target": "T1, Endoplasmic reticulum aminopeptidase 1", "experiment": "ERAP1 enzyme inhibitors, dose response, biochemical, fluorescence plate reader, dry powder (AID 1117292)", "type": "functional"}, "[3]": {"experiment": "Jurkat T cell cytotoxicity, dose response, cytotoxicity control for P. falciparum gametocyte viability project, luminescence (AID 1117277);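 also: potency reflects loss of cellular ATP meaning fewer viable cells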", "type": "functional, cell-based"}, "[4]": {"target": "Cytochrome P450 2C19 (Homo sapiens, UniProt P33261)", "sequence (P33261 whole entry)": "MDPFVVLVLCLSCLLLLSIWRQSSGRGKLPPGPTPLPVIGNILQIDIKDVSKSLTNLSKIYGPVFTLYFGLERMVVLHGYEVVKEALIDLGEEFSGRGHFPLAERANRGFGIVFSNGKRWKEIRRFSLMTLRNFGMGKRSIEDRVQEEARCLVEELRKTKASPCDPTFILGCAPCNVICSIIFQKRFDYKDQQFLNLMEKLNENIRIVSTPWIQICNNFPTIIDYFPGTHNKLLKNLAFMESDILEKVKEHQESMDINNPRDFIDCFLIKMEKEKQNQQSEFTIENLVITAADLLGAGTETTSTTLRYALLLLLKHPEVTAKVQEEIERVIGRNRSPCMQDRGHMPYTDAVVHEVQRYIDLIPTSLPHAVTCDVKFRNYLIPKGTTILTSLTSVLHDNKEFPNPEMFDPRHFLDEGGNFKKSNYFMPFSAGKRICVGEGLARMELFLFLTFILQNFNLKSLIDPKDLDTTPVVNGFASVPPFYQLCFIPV", "experiment": "Cytochrome panel assay with activity outcomes. Panel member name: p450-cyp2c19 Compounds with AC50 equal or less than 10 uM are considered active", "type": "functional"}, "[5]": {"experiment": "P. falciparum late gametocyte killing, dose response, luminescence (AID 1117278);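 also: gametocytes exposed to compound for 24 hours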", "type": "functional, cell-based"}, "[6]": {"target": "T2, Cytochrome P450 1A2 (Homo sapiens, UniProt P05177)", "T2 sequence (P05177 whole entry)": "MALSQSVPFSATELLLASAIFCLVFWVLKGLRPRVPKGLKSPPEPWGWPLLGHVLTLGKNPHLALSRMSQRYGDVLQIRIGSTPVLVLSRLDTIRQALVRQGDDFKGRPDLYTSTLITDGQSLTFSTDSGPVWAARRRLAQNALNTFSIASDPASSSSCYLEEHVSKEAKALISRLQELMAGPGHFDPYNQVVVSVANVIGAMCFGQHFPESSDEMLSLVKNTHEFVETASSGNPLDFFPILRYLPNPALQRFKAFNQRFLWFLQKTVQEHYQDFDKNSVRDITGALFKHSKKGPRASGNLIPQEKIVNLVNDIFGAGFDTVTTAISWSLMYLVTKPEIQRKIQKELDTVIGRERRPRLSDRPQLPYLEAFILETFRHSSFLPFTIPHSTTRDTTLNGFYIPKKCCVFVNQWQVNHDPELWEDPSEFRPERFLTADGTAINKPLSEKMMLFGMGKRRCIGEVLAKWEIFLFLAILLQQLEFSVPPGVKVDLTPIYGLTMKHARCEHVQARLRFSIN"}, "[7]": {"experiment": "THP-1 cell cytotoxicity, dose response, cytotoxicity control for Vif-APOBEC3G degradation inhibitor project, THP-1 cells (AID 1117359)", "type": "functional", "details": "Human immunodeficiency virus 1, THP-1"}, "[8]": {"tested_on": "Vero", "experiment": "Vero cell cytotoxicity, cytotoxicity control for flavivirus capping enzyme inhibitors (AID 588742)", "type": "functional", "details": "Chlorocebus sabaeus"}, "[9]": {"target": "Glutathione-S-transferase (Schistosoma japonicum, UniProt Q26513)", "sequence (Q26513 whole entry)": "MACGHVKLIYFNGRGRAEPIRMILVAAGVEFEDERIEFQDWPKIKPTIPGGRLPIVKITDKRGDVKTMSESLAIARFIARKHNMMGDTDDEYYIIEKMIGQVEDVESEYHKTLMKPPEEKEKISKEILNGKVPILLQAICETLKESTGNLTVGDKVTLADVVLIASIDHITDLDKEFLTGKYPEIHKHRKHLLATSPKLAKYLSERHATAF", "experiment": "biotin-GST/anti-GST TR-FRET signal inhibitors, dose response, artefact control for Vif-APOBEC3G degradation inhibitor project, biochemical (AID 1117362)", "type": "functional"}, "[10]": {"tested_on": "HEK293", "experiment": "cells", "details": "Homo sapiens"}, "[11]": {"experiment": "HepG2 cell cytotoxicity, dose response, cytotoxicity control for Shn3 inhibitor project, CellTiter-Glo, cherry-picked (AID 624134)", "type": "functional, cell-based"}, "[12]": {"target": "E3 ubiquitin-protein ligase UHRF1 (Homo sapiens, UniProt Q96T88)", "sequence (Q96T88 whole entry, the tested form may be a part)": "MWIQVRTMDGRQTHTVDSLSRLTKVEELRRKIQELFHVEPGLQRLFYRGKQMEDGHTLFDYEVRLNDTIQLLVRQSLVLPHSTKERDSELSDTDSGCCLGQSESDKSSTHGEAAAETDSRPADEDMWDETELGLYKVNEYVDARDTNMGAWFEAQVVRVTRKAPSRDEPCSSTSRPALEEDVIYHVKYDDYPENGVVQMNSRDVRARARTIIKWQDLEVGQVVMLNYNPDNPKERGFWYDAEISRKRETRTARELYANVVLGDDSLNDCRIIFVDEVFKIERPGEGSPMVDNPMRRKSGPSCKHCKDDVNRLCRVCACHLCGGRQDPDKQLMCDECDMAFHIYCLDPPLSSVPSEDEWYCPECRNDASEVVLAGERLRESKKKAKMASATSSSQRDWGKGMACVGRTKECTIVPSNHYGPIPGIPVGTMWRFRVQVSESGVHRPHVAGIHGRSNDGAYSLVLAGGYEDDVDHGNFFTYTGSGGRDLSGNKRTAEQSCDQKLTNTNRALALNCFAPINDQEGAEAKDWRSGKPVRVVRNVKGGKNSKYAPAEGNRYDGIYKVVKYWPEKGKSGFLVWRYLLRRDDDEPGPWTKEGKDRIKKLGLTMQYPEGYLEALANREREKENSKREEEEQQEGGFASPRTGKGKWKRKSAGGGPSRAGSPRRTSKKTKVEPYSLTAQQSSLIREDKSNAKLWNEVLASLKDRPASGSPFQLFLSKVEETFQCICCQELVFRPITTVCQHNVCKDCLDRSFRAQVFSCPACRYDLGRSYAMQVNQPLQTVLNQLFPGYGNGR", "experiment": "Counterscreen for inhibitors of 5-meCpG-binding domain protein 2 (MBD2): TRFRET-based biochemical high throughput dose response assay to identify inhibitors of binding of ubiquitin-like with PHD and ring finger domains 1 (UHRF1) to methylated oligonucleotide."}, "[13]": {"experiment": "Shn3 3'UTR reporter inhibitors, dose response, cell-based, Clone20 osteoblasts, firefly luciferase, cherry-picked (AID 624132)", "type": "functional"}, "[14]": {"target": "T3, DNA repair protein RAD52 homolog (Homo sapiens, UniProt P43351)", "T3 sequence (P43351 whole entry)": "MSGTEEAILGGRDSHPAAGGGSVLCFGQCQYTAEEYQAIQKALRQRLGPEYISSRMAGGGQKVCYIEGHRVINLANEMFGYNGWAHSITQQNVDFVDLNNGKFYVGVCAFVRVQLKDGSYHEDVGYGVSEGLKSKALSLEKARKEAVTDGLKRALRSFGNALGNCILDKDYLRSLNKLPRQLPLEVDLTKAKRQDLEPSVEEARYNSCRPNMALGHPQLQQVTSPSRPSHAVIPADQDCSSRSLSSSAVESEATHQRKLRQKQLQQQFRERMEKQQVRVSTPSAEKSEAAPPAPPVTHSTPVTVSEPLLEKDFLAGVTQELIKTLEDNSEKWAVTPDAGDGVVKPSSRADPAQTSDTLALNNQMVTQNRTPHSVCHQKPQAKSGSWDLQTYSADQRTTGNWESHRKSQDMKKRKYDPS", "type": "functional, biochemical"}, "[15]": {"tested_on": "HEK293", "experiment": "cells", "details": "Homo sapiens", "remark": "listed apart in the source"}, "[16]": {"experiment": "A549 cell cytotoxicity, dose response, cytotoxicity control, 24 h, CellTiter-Glo luminescence, cherry-picks (AID 1053115)", "type": "functional, cell-based", "details": "A549, 24 h"}, "[17]": {"experiment": "A549 cell cytotoxicity, dose response, CellTiter-Glo luminescence, dry powder, set 17 (AID 1117284)", "type": "functional, cell-based"}, "[18]": {"experiment": "IOSE-T80 ovarian epithelial cell cytotoxicity, dose response, cytotoxicity control for PAX8 inhibitor project, plate reader, dry powder samples (AID 743045)", "type": "functional, cell-based"}, "[19]": {"experiment": "HEK293T cytotoxicity, dose response, cytotoxicity control for miR-122 modulator project, cell-based, inhibitor set, cherry-pick, set 2 (AID 720697)", "type": "functional"}, "[20]": {"experiment": "cytotoxicity in OVCAR8 ovarian cancer cells, dose response, PAX8 project, cell-based, plate reader, dry powder samples (AID 743197)", "type": "functional", "details": "OVCAR-8"}, "[21]": {"target": "Paired box protein Pax-8 (Homo sapiens, UniProt Q06710)", "sequence (Q06710 whole entry)": "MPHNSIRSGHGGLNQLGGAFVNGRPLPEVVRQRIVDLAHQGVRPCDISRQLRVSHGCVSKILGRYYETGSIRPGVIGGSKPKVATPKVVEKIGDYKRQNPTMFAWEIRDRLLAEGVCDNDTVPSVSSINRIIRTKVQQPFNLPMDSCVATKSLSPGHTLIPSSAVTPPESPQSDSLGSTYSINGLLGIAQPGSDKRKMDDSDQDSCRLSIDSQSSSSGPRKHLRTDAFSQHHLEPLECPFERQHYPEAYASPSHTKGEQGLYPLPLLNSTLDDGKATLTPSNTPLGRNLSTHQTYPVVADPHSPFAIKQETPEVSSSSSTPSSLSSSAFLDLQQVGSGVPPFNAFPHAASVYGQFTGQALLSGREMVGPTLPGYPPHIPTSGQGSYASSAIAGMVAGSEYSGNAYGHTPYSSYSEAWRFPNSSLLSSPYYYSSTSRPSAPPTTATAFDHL", "experiment": "inhibitors of PAX8-driven TPO luciferase reporter, dose response, RMG-I cells, cherry-pick (AID 687027);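 also: luciferase reporter driven by Pax8 target thyroperoxidase promoter measured by SteadyGlo luminescence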", "type": "functional, cell-based"}, "[22]": {"experiment": "NIH:OVCAR-3 ovarian cancer cell cytotoxicity, dose response, PAX8 inhibitor project, plate reader, dry powder samples (AID 743044)", "type": "functional, cell-based"}, "[23]": {"experiment": "HEK293T cytotoxicity, dose response, cytotoxicity control for miR-122 modulator project, cell-based, activator set, cherry-pick (AID 720690);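 also: HEK293T human cells scored for general mammalian cytotoxicity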", "type": "functional"}, "[24]": {"experiment": "IGROV1 ovarian cancer cell cytotoxicity, dose response, PAX8 inhibitor project, plate reader, dry powder samples (AID 743043)", "type": "functional, cell-based", "details": "IGROV-1"}},
  "note": "Activity calls are given as the source filed them.",
  "data": [
    {"smiles": "CC(=O)N1CCN(C(=O)C2(NC(=O)Nc3ccc(C)cc3)CCCCC2)CC1", "values": [
      {"measurement": "AC50", "setting": "[1]", "result": "8.21 µM (active)"},
      {"measurement": "AC50", "setting": "[2]", "result": "24.8 µM (active)"}
    ]},
    {"smiles": "CCCCC1(C)NC(=O)c2c(C)sc(C(=O)OCC)c2N1", "note": "(centres undefined)", "values": [
      {"measurement": "IC50", "setting": "[3]", "result": "> 83.3 µM (inactive)"},
      {"measurement": "AC50", "setting": "[4]", "result": "2.24 µM (inconclusive)"},
      {"measurement": "IC50", "setting": "[5]", "result": "> 109 µM (inactive)"},
      {"measurement": "AC50", "setting": "[6]", "result": "14.1 µM (inconclusive)"}
    ]},
    {"smiles": "CC[n+]1c(/C=C2/C=C(C)CC(C)(C)C2)sc2ccc(OC)cc21", "values": [
      {"measurement": "CC50", "setting": "[7]", "result": "4.13 µM (active)"},
      {"measurement": "CC50", "setting": "[8]", "result": "> 40 µM (active)"},
      {"measurement": "IC50", "setting": "[9]", "result": "> 100 µM (active)"}
    ]},
    {"smiles": "COc1ccc(C(=O)NCCN(C)C)c2nc3ccccc3cc12", "values": [
      {"measurement": "EC50", "setting": "[10]", "result": "> 59.5 µM (inactive)"},
      {"measurement": "AC50", "setting": "[11]", "result": "5.16 µM (active)"},
      {"measurement": "IC50", "setting": "[12]", "result": "9.07 µM (active)"},
      {"measurement": "AC50", "setting": "[13]", "result": "5.78 µM (active)"},
      {"measurement": "AC50", "setting": "[14]", "result": "1.04 µM (active)"},
      {"measurement": "EC50", "setting": "[15]", "result": "> 59.5 µM (inactive)"}
    ]},
    {"smiles": "C[C@H](O)C#Cc1ccc2c(c1)O[C@H](CN(C)Cc1ccc(-c3ccccc3)cc1)[C@@H](C)CN([C@@H](C)CO)S2(=O)=O", "values": [
      {"measurement": "AC50", "setting": "[16]", "result": "> 60 µM (inactive)"},
      {"measurement": "AC50", "setting": "[17]", "result": "37.9 µM (active)"},
      {"measurement": "AC50", "setting": "[18]", "result": "3.37 µM (active)"},
      {"measurement": "AC50", "setting": "[19]", "result": "1.58 µM (active)"},
      {"measurement": "AC50", "setting": "[20]", "result": "43.2 µM (active)"},
      {"measurement": "AC50", "setting": "[21]", "result": "3.42 µM (active)"},
      {"measurement": "AC50", "setting": "[22]", "result": "10.7 µM (active)"},
      {"measurement": "AC50", "setting": "[23]", "result": "15.2 µM (active)"},
      {"measurement": "AC50", "setting": "[24]", "result": "15.9 µM (active)"}
    ]}
  ]
}
